Measurements published in patent US20240343906A1, “POLOXAMER-STABILIZED REAGENTS” (Promega Corporation, priority 2023, published 2024).

How the values were obtained:
[1] = Solubility analysis: clarity by optical density at 850 nm (OD850) after reconstitution; type: physicochemical; conditions: lyophilized, reconstituted in DPBS pH 7.0, 1 mM
Experimental: FIG. 4. Solubility of dye-chloroalkyl ligand conjugates following lyophilization in the presence of various excipients and reconstitution in DPBS pH 7.0.
Vials of lyophilized Chloroalkyl-JANELIA FLUOR 552 (CA-JF 552) and Chloroalkyl-JANELIA FLUOR 669 (CA-JF 669) formulated prior to lyophilization with various excipients were separately dissolved in 100 μL aqueous buffer to a final 1 mM concentration. 70 μl of the CA-JF 552 and CA-JF 669 solutions were then transferred to wells of a transparent 96-well plate for clarity analysis using Optical Density absorbance measurements at 850 nm [Bandwidth 3.5 nm] (OD850) on Tecan Spark plate reader (FIGS. 4 and 5). Target absorbance limit for clarity measurements was determined using a known turbidity sample of material similarly formulated with poloxamer to assess solubility of the ligand.
A clarity target of <0.1 was utilized.

[2] = Reconstitution of lyophilized P-407 formulated cakes in 100 μL DPBS (visual appearance); type: physicochemical; conditions: 100 nmols ligand, 100 μL DPBS (JF-552: after 4 h)
Experimental: The 1 μmol JF Dye HaloTag Ligand (JF-669 or JF-552) was dissolved in ca. 3.5 mL EtOH, followed by transferring the resulting solution to the melted P-407. The resulting mixture was rotated at ca. 65° C. to afford a homogeneous solution. […]

| clarity (OD850) versus clarity target <0.1 ([1]; excipient cyclodextrin) | clarity (OD850) versus clarity target <0.1 ([1]; excipient pullulan) | appearance after reconstitution ([2]; 3-mg-P407 formulation) | appearance after reconstitution ([2]; 9-mg-P407 formulation) | Molecule |
| --- | --- | --- | --- | --- |
| unable to hit clarity target | unable to hit clarity target | hazy suspension | clear solution | Chloroalkyl-JANELIA FLUOR 552 [JF-552] |
| unable to hit clarity target | unable to hit clarity target | hazy suspension | clear solution | C[Si]1(C)C2=CC(=[N+]3CCC3)C=CC2=C(c2c(F)c(C(=O)NCCOCCOCCCCCCCl)c(F)c(F)c2C(=O)[O-])c2ccc(N3CCC3)cc21 [JF-669, Chloroalkyl-JANELIA FLUOR 669] |
